Experimental data from PubChem BioAssay AID1963874 (Molecular Pharmacology Branch, DTP, NCI, 2024).

Test system: 253994-281-T-J1-PDC KRAS-mutant spheroids with HUVEC/MSC, viability
Assay: Anticancer human tumor 253994-281-T-J1-PDC patient-derived colorectal carcinoma cell line growth inhibition [KRAS2]
Conditions: for IC50: curve of first compound; for viability, T/C: stronger effect = lower value; active = viability on the fitted dose curve at most 10% of control; inactive = the rest
Procedure, shortened: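 KRAS-mutant tumor cells were grown as spheroids with HUVEC endothelial cells and human MSCs as stroma. Targeted agents were tested alone and with KRAS pathway inhibitors. Doses started at or near clinical Cmax, or 10 microM, descending half-log.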

[1] = second compound 0.1 µM, first compound 0.0316 µM
[2] = second compound 0.1 µM, first compound 0.1 µM
[3] = second compound 0.1 µM, first compound 0.316 µM
[4] = second compound 0.1 µM, first compound 1 µM
[5] = second compound 0.1 µM, first compound 3.16 µM
[6] = second compound 0.1 µM, first compound 10 µM
[7] = second compound 0.316 µM, first compound 0.0316 µM
[8] = second compound 0.316 µM, first compound 0.1 µM
[9] = second compound 0.316 µM, first compound 0.316 µM
[10] = second compound 0.316 µM, first compound 1 µM
[11] = second compound 0.316 µM, first compound 3.16 µM
[12] = second compound 0.316 µM, first compound 10 µM
[13] = second compound 1 µM, first compound 0.0316 µM
[14] = second compound 1 µM, first compound 0.1 µM
[15] = second compound 1 µM, first compound 0.316 µM
[16] = second compound 1 µM, first compound 1 µM
[17] = second compound 1 µM, first compound 3.16 µM
[18] = second compound 1 µM, first compound 10 µM
[19] = second compound 3.16 µM, first compound 0.0316 µM
[20] = second compound 3.16 µM, first compound 0.1 µM
[21] = second compound 3.16 µM, first compound 0.316 µM
[22] = second compound 3.16 µM, first compound 1 µM
[23] = second compound 3.16 µM, first compound 3.16 µM
[24] = second compound 3.16 µM, first compound 10 µM
[25] = second compound 10 µM, first compound 0.0316 µM
[26] = second compound 10 µM, first compound 0.1 µM
[27] = second compound 10 µM, first compound 0.316 µM
[28] = second compound 10 µM, first compound 1 µM
[29] = second compound 10 µM, first compound 3.16 µM
[30] = second compound 10 µM, first compound 10 µM
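Also: spheroids exposed to agents for seven days before readout.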
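For viability, T/C in this document: percent of DMSO vehicle control viability.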

CC1(C)CCC(CN2CCN(c3ccc(C(=O)NS(=O)(=O)c4ccc(NCC5CCOCC5)c([N+](=O)[O-])c4)c(Oc4cnc5[nH]ccc5c4)c3)CC2)=C(c2ccc(Cl)cc2)C1 + CC1OCC2(CCN(c3cnc(Sc4ccnc(N)c4Cl)c(N)n3)CC2)C1N
inactive: viability, T/C [1] 88.2% | viability, T/C [2] 100% | viability, T/C [3] 85.4% | viability, T/C [4] 103% | viability, T/C [5] 81.6% | viability, T/C [6] 72.9% | viability, T/C [7] 77% | viability, T/C [8] 82.1% | viability, T/C [9] 79.9% | viability, T/C [10] 80.4% | viability, T/C [11] 72% | viability, T/C [12] 51.1% | viability, T/C [13] 89.5% | viability, T/C [14] 72.9% | viability, T/C [15] 72.5% | viability, T/C [16] 79.3% | viability, T/C [17] 65.7% | viability, T/C [18] 49.5% | viability, T/C [19] 66.2% | viability, T/C [20] 67.7% | viability, T/C [21] 63.7% | viability, T/C [22] 61% | viability, T/C [23] 48.7% | viability, T/C [24] 35% | viability, T/C [25] 38.3% | viability, T/C [26] 36.6% | viability, T/C [27] 47.5% | viability, T/C [28] 47.1% | viability, T/C [29] 35%
> 10000 nM: IC50 (second compound 0.1 µM) | IC50 (second compound 0.316 µM) | IC50 (second compound 1 µM)
< 31.6 nM: IC50 (second compound 10 µM)
active: viability, T/C [30] 4.16%
2820 nM: IC50 (second compound 3.16 µM)

Cn1nccc1Nc1nccc(-c2cc3c(s2)C(C)(C)N(CCN2CCOCC2)C3=O)n1 + C=CC(=O)N1CCN(c2nc(OCC3CCCN3C)nc3c2CCN(c2cccc4cccc(C)c24)C3)CC1CC#N
2150 nM: IC50 (second compound 0.316 µM)
2630 nM: IC50 (second compound 0.1 µM)
active: viability, T/C [23] 4.92% | viability, T/C [24] 1.02%
inactive: viability, T/C (second compound 0.0316 µM, first compound 0.0316 µM) 92.7% | viability, T/C (second compound 0.0316 µM, first compound 0.1 µM) 99% | viability, T/C (second compound 0.0316 µM, first compound 0.316 µM) 89.1% | viability, T/C (second compound 0.0316 µM, first compound 1 µM) 72.4% | viability, T/C (second compound 0.0316 µM, first compound 3.16 µM) 62.2% | viability, T/C (second compound 0.0316 µM, first compound 10 µM) 28% | viability, T/C [1] 92.3% | viability, T/C [2] 96.3% | viability, T/C [3] 88.7% | viability, T/C [4] 73.5% | viability, T/C [5] 45.6% | viability, T/C [6] 29.4% | viability, T/C [7] 95.5% | viability, T/C [8] 103% | viability, T/C [9] 96.7% | viability, T/C [10] 67.4% | viability, T/C [11] 43.1% | viability, T/C [12] 30.4% | viability, T/C [13] 107% | viability, T/C [14] 98.9% | viability, T/C [15] 73.9% | viability, T/C [16] 80.3% | viability, T/C [17] 44.6% | viability, T/C [18] 27.4% | viability, T/C [19] 64% | viability, T/C [20] 53.6% | viability, T/C [21] 45.2% | viability, T/C [22] 20.8%
181 nM: IC50 (second compound 3.16 µM)
4450 nM: IC50 (second compound 0.0316 µM)
3040 nM: IC50 (second compound 1 µM)

COc1cc2nccc(Oc3ccc(NC(=O)C4(C(=O)Nc5ccc(F)cc5)CC4)cc3)c2cc1OC + CNCc1ccccc1-c1csc(C(C)Nc2nc(C)nc3cc(OC)c(OC)cc23)c1
3470 nM: IC50 (second compound 1 µM)
inactive: viability, T/C [1] 99.4% | viability, T/C [2] 99.1% | viability, T/C [3] 83.8% | viability, T/C [4] 85% | viability, T/C [5] 94.5% | viability, T/C [6] 61.1% | viability, T/C [7] 98.2% | viability, T/C [8] 92% | viability, T/C [9] 84.9% | viability, T/C [10] 96.6% | viability, T/C [11] 68% | viability, T/C [12] 28% | viability, T/C [13] 93.3% | viability, T/C [14] 87.4% | viability, T/C [15] 85.1% | viability, T/C [16] 85.7% | viability, T/C [17] 53.9% | viability, T/C [19] 43.2% | viability, T/C [20] 45.6% | viability, T/C [21] 49.7% | viability, T/C [22] 25%
< 31.6 nM: IC50 (second compound 3.16 µM) | IC50 (second compound 10 µM)
active: viability, T/C [18] 5.85% | viability, T/C [23] 12.3% | viability, T/C [24] 0.16% | viability, T/C [25] 0.13% | viability, T/C [26] 0.14% | viability, T/C [27] 0.13% | viability, T/C [28] 0.13% | viability, T/C [29] 0.29% | viability, T/C [30] 0.16%
> 10000 nM: IC50 (second compound 0.1 µM)
5300 nM: IC50 (second compound 0.316 µM)

CC(C)n1nc(-c2ccc3oc(N)nc3c2)c2c(N)ncnc21 + CC1OCC2(CCN(c3cnc(Sc4ccnc(N)c4Cl)c(N)n3)CC2)C1N
> 100 nM: IC50 (second compound 0.1 µM) | IC50 (second compound 0.316 µM)
< 0.316 nM: IC50 (second compound 10 µM)
87.6 nM: IC50 (second compound 1 µM)
17.7 nM: IC50 (second compound 3.16 µM)
inactive: viability, T/C (second compound 0.1 µM, first compound 0.000316 µM) 97.9% | viability, T/C (second compound 0.1 µM, first compound 0.001 µM) 100% | viability, T/C (second compound 0.1 µM, first compound 0.00316 µM) 101% | viability, T/C (second compound 0.1 µM, first compound 0.01 µM) 81% | viability, T/C [1] 76.5% | viability, T/C [2] 56.9% | viability, T/C (second compound 0.316 µM, first compound 0.000316 µM) 93.6% | viability, T/C (second compound 0.316 µM, first compound 0.001 µM) 76.7% | viability, T/C (second compound 0.316 µM, first compound 0.00316 µM) 78.9% | viability, T/C (second compound 0.316 µM, first compound 0.01 µM) 77.7% | viability, T/C [7] 68.5% | viability, T/C [8] 49.8% | viability, T/C (second compound 1 µM, first compound 0.000316 µM) 85.3% | viability, T/C (second compound 1 µM, first compound 0.001 µM) 73.2% | viability, T/C (second compound 1 µM, first compound 0.00316 µM) 82.8% | viability, T/C (second compound 1 µM, first compound 0.01 µM) 67.8% | viability, T/C [13] 57.6% | viability, T/C [14] 49.4% | viability, T/C (second compound 3.16 µM, first compound 0.000316 µM) 62% | viability, T/C (second compound 3.16 µM, first compound 0.001 µM) 64.6% | viability, T/C (second compound 3.16 µM, first compound 0.00316 µM) 67.3% | viability, T/C (second compound 3.16 µM, first compound 0.01 µM) 55.2% | viability, T/C [19] 44% | viability, T/C [20] 36.5% | viability, T/C (second compound 10 µM, first compound 0.000316 µM) 40.1% | viability, T/C (second compound 10 µM, first compound 0.001 µM) 40.7% | viability, T/C (second compound 10 µM, first compound 0.00316 µM) 43.2% | viability, T/C (second compound 10 µM, first compound 0.01 µM) 44.5% | viability, T/C [25] 39.2% | viability, T/C [26] 28.2%

Cn1nccc1Nc1nccc(-c2cc3c(s2)C(C)(C)N(CCN2CCOCC2)C3=O)n1 + CC1OCC2(CCN(c3cnc(Sc4ccnc(N)c4Cl)c(N)n3)CC2)C1N
745 nM: IC50 (second compound 0.316 µM)
1460 nM: IC50 (second compound 0.1 µM)
110 nM: IC50 (second compound 3.16 µM)
< 31.6 nM: IC50 (second compound 10 µM)
280 nM: IC50 (second compound 1 µM)
active: viability, T/C [23] 10% | viability, T/C [24] 8.2% | viability, T/C [28] 8.1% | viability, T/C [29] 4.83% | viability, T/C [30] 6.14%
inactive: viability, T/C [1] 81.1% | viability, T/C [2] 82.9% | viability, T/C [3] 74.9% | viability, T/C [4] 59% | viability, T/C [5] 32.3% | viability, T/C [6] 18.9% | viability, T/C [7] 77% | viability, T/C [8] 79.2% | viability, T/C [9] 63.1% | viability, T/C [10] 45.6% | viability, T/C [11] 26% | viability, T/C [12] 17.9% | viability, T/C [13] 68.3% | viability, T/C [14] 64.6% | viability, T/C [15] 48.3% | viability, T/C [16] 22.5% | viability, T/C [17] 13.2% | viability, T/C [18] 15% | viability, T/C [19] 60.8% | viability, T/C [20] 50.2% | viability, T/C [21] 34.8% | viability, T/C [22] 15.3% | viability, T/C [25] 39.8% | viability, T/C [26] 28.4% | viability, T/C [27] 15.4%

Cn1nccc1Nc1nccc(-c2cc3c(s2)C(C)(C)N(CCN2CCOCC2)C3=O)n1 + COc1cc2nc(C)nc(NC(C)c3cc(N)cc(C(F)(F)F)c3)c2cc1OC1CCOC1
753 nM: IC50 (second compound 1 µM)
507 nM: IC50 (second compound 3.16 µM)
inactive: viability, T/C [1] 107% | viability, T/C [2] 89.5% | viability, T/C [3] 85.2% | viability, T/C [4] 52.4% | viability, T/C [5] 24.8% | viability, T/C [6] 19.6% | viability, T/C [7] 92% | viability, T/C [8] 96.6% | viability, T/C [9] 78% | viability, T/C [10] 45.9% | viability, T/C [11] 22.8% | viability, T/C [12] 19% | viability, T/C [13] 92.3% | viability, T/C [14] 92.1% | viability, T/C [15] 72.9% | viability, T/C [16] 41.5% | viability, T/C [17] 27% | viability, T/C [18] 17.9% | viability, T/C [19] 96.5% | viability, T/C [20] 77.5% | viability, T/C [21] 62% | viability, T/C [22] 36.9% | viability, T/C [23] 18.3% | viability, T/C [24] 14.2% | viability, T/C [25] 78.7% | viability, T/C [26] 68.8% | viability, T/C [27] 54% | viability, T/C [28] 16.9%
1100 nM: IC50 (second compound 0.1 µM)
850 nM: IC50 (second compound 0.316 µM)
active: viability, T/C [29] 7.12% | viability, T/C [30] 2.36%
340 nM: IC50 (second compound 10 µM)
